# Test results: patent US8648081B2 (Eli Lilly and Company, priority 2011, dated 2014)
# System: Lone star tick larvae (Amblyomma americanum)
# Assay: In Vitro Larval Immersion Microassay (LIM)
# Settings: read-out: % Efficacy (percent larval mortality)
# Procedure: In Vitro Larval Immersion Microassay (LIM)
# The larval immersion microassay may be conducted as described in White, et al., J. Med. Entomol. […] Briefly, experimental test articles are formulated in dimethylsulfoxide (DMSO) to prepare a stock solution at a concentration of 10 mM. […] Approximately 30-50 Lone star tick larvae (Amblyomma americanum) are submerged into each well containing experimental test articles. After a 30 minute immersion period, larvae are removed with a wide-bore pipette tip in 0.05 ml of fluid, dispensed into a commercial paper tissue biopsy bag which is sealed at the top with a plastic dialysis clip, inverted and allowed to air dry for 60 minutes. Bags containing larvae are then incubated at approximately 27 degrees Celsius and >90% relative humidity. After 24 hours, bags are opened, live and dead larvae are counted and percent larval mortality is calculated as follows: % Efficacy=(# dead larvae)/(# total larvae)×100.
row,Structure (SMILES),mortality at 300 µM [%]
1,"N#CCNC(=O)CNC(=O)c1sc(C2=NOC(c3cc(Cl)cc(Cl)c3)(C(F)(F)F)C2)c2c1CCCC2 (centres unmarked) [Example 94, N-(2-(cyanomethylamino)-2-oxoethyl)-3-(5-(3,5-dichlorophenyl)-5-(trifluoromethyl)-4,5-dihydroisoxazol-3-yl)-4,5,6,7-tetrahydrobenzo[c]thiophene-1-carboxamide]",≥ 80
2,"N#CCNC(=O)CNC(=O)c1sc(C2=NOC(c3cc(Cl)cc(Cl)c3)(C(F)(F)F)C2)c2c1CCC2 (centres unmarked) [Example 42, N-(2-(cyanomethyl-amino)-2-oxoethyl)-3-(5-(3,5-dichlorophenyl)-5-(trifluoromethyl)-4,5-dihydroisoxazol-3-yl)-5,6-dihydro-4H-cyclopenta[c]thiophene-1-carboxamide]",≥ 80
3,"O=C(NC1CCOCC1)c1sc(C2=NOC(c3cc(Cl)c(Cl)c(Cl)c3)(C(F)(F)F)C2)c2c1CCCC2 (centres unmarked) [Example 77, N-(tetrahydro-2H-pyran-4-yl)-3-(5-(3,4,5-trichlorophenyl)-5-(trifluoromethyl)-4,5-dihydroisoxazol-3-yl)-4,5,6,7-tetrahydrobenzo[c] thiophene-1-carboxamide]",≥ 80
4,"O=C(CNC(=O)c1sc(C2=NOC(c3cc(Cl)c(F)c(Cl)c3)(C(F)(F)F)C2)c2c1CCC2)NCCF (centres unmarked) [Example 246, 3-[5-(3,5-Dichloro-4-fluoro-phenyl)-5-trifluoromethyl-4,5-dihydro-isoxazol-3-yl]-5,6-dihydro-4H-cyclopenta[c]thiophene-1-carboxylic acid [(2-fluoro-ethylcarbamoyl)-methyl]-amide]",≥ 80
5,"Cc1ccc2sc(C3=NOC(c4cc(Cl)cc(Cl)c4)(C(F)(F)F)C3)cc2c1 (centres unmarked) [Example 236, 5-(3,5-dichloro-phenyl)-3-(5-methyl-benzo[b]thiophen-2-yl)-5-(trifluoro-methyl)-4,5-dihydro-isoxazole]",≥ 80
6,"O=C(N[C@@H]1CCNC1=O)c1sc(C2=NOC(c3cc(Cl)c(F)c(Cl)c3)(C(F)(F)F)C2)c2c1CCCC2 (stereo partly drawn) [Example 49, 3-(5-(3,5-dichloro-4-fluorophenyl)-5-(trifluoromethyl)-4,5-dihydroisoxazol-3-yl)-N-((R)-2-oxopyrrolidin-3-yl)-4,5,6,7-tetrahydro-benzo[c]thiophene-1-carboxamide]",≥ 80
7,"N#CCNC(=O)CNC(=O)c1sc(C2=NOC(c3cc(Cl)c(F)c(Cl)c3)(C(F)(F)F)C2)c2c1CCC2 (centres unmarked) [Example 59, N-(2-(cyanomethyl-amino)-2-oxoethyl)-3-(5-(3,5-dichloro-4-fluorophenyl)-5-(trifluoromethyl)-4,5-dihydroisoxazol-3-yl)-5,6-dihydro-4H-cyclopenta[c] thiophene-1-carboxamide]",≥ 80
8,"O=C(NC1CCS(=O)(=O)CC1)c1sc(C2=NOC(c3cc(Cl)cc(Cl)c3)(C(F)(F)F)C2)c2c1CCCC2 (centres unmarked) [Example 39, 3-[5-(3,5-Dichloro-phenyl)-5-trifluoro-methyl-4,5-dihydro-isoxazol-3-yl]-4,5,6,7-tetrahydro-benzo [c]thiophene-1-carboxylic acid (1,1-dioxo-hexahydro-116-thiopyran-4-yl)-amide]",≥ 80
9,"O=C(N[C@@H]1CCNC1=O)c1sc(C2=NOC(c3cc(Cl)c(Cl)c(Cl)c3)(C(F)(F)F)C2)c2c1CCCC2 (stereo partly drawn) [Example 45, N-((R)-2-oxopyrrolidin-3-yl)-3-(5-(3,4,5-trichlorophenyl)-5-(trifluoromethyl)-4,5-dihydroisoxazol-3-yl)-4,5,6,7-tetrahydrobenzo [c]thiophene-1-carboxamide]",≥ 80
10,"O=C(N[C@@H]1CCNC1=O)c1sc(C2=NOC(c3cc(Cl)cc(Cl)c3)(C(F)(F)F)C2)c2c1CCC2 (stereo partly drawn) [Example 41, 3-(5-(3,5-dichloro-phenyl)-5-(trifluoro-methyl)-4,5-dihydro-isoxazol-3-yl)-N-((R)-2-oxopyrrolidin-3-yl)-5,6-dihydro-4H-cyclopenta[c] thiophene-1-carboxamide]",≥ 80
11,"FC(F)(F)C1(c2cc(Cl)cc(Cl)c2)CC(c2cc3ccccc3s2)=NO1 (centres unmarked) [Example 233, 3-(benzo[b]thio-phen-2-yl)-5-(3,5-dichlorophenyl)-5-(trifluoromethyl)-4,5-dihydroisoxazole]",≥ 80
12,"N#CCNC(=O)CNC(=O)c1sc(C2=NOC(c3cc(Cl)c(F)c(Cl)c3)(C(F)(F)F)C2)c2c1CCCC2 (centres unmarked) [Example 50, N-(2-(cyanomethyl-amino)-2-oxoethyl)-3-(5-(3,5-dichloro-4-fluorophenyl)-5-(trifluoromethyl)-4,5-dihydroisoxazol-3-yl)-4,5,6,7-tetrahydrobenzo [c]thiophene-1-carboxamide]",≥ 80
13,"O=C(NC1CSC1)c1sc(C2=NOC(c3cc(Cl)cc(Cl)c3)(C(F)(F)F)C2)c2c1CCCC2 (centres unmarked) [Example 70, 3-(5-(3,5-dichloro-phenyl)-5-(trifluoro-methyl)-4,5-dihydro-isoxazol-3-yl)-N-(thietan-3-yl)-4,5,6,7-tetrahydrobenzo[c] thiophene-1-carboxamide]",≥ 80
14,"C#CCNC(=O)CNC(=O)c1sc(C2=NOC(c3cc(Cl)c(F)c(Cl)c3)(C(F)(F)F)C2)c2c1CCCC2 (centres unmarked) [Example 51, 3-(5-(3,5-dichloro-4-fluorophenyl)-5-(trifluoromethyl)-4,5-dihydroisoxazol-3-yl)-N-(2-oxo-2-(prop-2-ynylamino)ethyl)-4,5,6,7-tetrahydro-benzo[c]thiophene-1-carboxamide]",≥ 80
15,"O=C(NC1CCN(CC(F)(F)F)C1=O)c1sc(C2=NOC(c3cc(Cl)c(Cl)c(Cl)c3)(C(F)(F)F)C2)c2c1CCC2 (centres unmarked) [Example 56, N-(2-oxo-1-(2,2,2-trifluoroethyl)pyrrolidin-3-yl)-3-(5-(3,4,5-trichlorophenyl)-5-(trifluoromethyl)-4,5-dihydroisoxazol-3-yl)-5,6-dihydro-4H-cyclopenta[c] thiophene-1-carboxamide]",≥ 80
16,"CSCCNC(=O)c1sc(C2=NOC(c3cc(Cl)cc(Cl)c3)(C(F)(F)F)C2)c2c1CCCC2 (centres unmarked) [Example 65, 3-(5-(3,5-dichloro-phenyl)-5-(trifluoro-methyl)-4,5-dihydro-isoxazol-3-yl)-N-(2-(methylthio)ethyl)-4,5,6,7-tetra-hydrobenzo[c] thiophene-1-carboxamide]",≥ 80
17,"O=C(NC1CCN(C2CC2)C1=O)c1sc(C2=NOC(c3cc(Cl)c(Cl)c(Cl)c3)(C(F)(F)F)C2)c2c1CCCC2 (centres unmarked) [Example 78, N-(1-cyclopropyl-2-oxopyrrolidin-3-yl)-3-(5-(3,4,5-trichloro-phenyl)-5-(trifluoro-methyl)-4,5-dihydro-isoxazol-3-yl)-4,5,6,7-tetrahydrobenzo[c] thiophene-1-carboxamide]",≥ 80
18,"O=C(NC1CCCC(O)C1)c1sc(C2=NOC(c3cc(Cl)cc(Cl)c3)(C(F)(F)F)C2)c2c1CCCC2 (centres unmarked) [Example 67, 3-(5-(3,5-dichloro-phenyl)-5-(trifluoro-methyl)-4,5-dihydro-isoxazol-3-yl)-N-(3-hydroxycyclohexyl)-4,5,6,7-tetrahydrobenzo [c]thiophene-1-carboxamide]",≥ 80
19,"FC(F)(F)C1(c2cc(Cl)cc(Cl)c2)CC(c2cc3cccnc3s2)=NO1 (centres unmarked) [Example 232, 2-[5-(3,5-Dichloro-phenyl)-5-tri-fluoromethyl-4,5-dihydro-isoxazol-3-yl]-thieno[2,3-b] pyridine]",≥ 80
20,"O=C1CCCC(NC(=O)c2sc(C3=NOC(c4cc(Cl)cc(Cl)c4)(C(F)(F)F)C3)c3c2CCCC3)C1 (centres unmarked) [Example 38, 3-(5-(3,5-dichloro-phenyl)-5-(trifluoro-methyl)-4,5-dihydro-isoxazol-3-yl)-N-(3-oxocyclohexyl)-4,5,6,7-tetrahydrobenzo [c]thiophene-1-carboxamide]",≥ 80
21,"O=C(CNC(=O)c1sc(C2=NOC(c3cc(Cl)cc(Cl)c3)(C(F)(F)F)C2)c2c1CCCC2)NCC(F)(F)F (centres unmarked) [Example 62, 3-(5-(3,5-dichloro-phenyl)-5-(trifluoro-methyl)-4,5-dihydro-isoxazol-3-yl)-N-(2-oxo-2-(2,2,2-trifluoroethylamino)ethyl)-4,5,6,7-tetrahydrobenzo[c] thiophene-1-carboxamide]",≥ 80
22,"O=C(NC1CCN(CC(F)(F)F)C1=O)c1sc(C2=NOC(c3cc(Cl)cc(Cl)c3)(C(F)(F)F)C2)c2c1CCC2 (centres unmarked) [Example 86, 3-(5-(3,5-dichloro-phenyl)-5-(trifluoro-methyl)-4,5-dihydro-isoxazol-3-yl)-N-(2-oxo-1-(2,2,2-trifluoroethyl)pyrrolidin-3-yl)-5,6-dihydro-4H-cyclopenta[c] thiophene-1-carboxamide]",≥ 80
23,O=C(NC1CCN(C2CC2)C1=O)c1sc(C2=NOC(c3cc(Cl)cc(Cl)c3)(C(F)(F)F)C2)c2c1CCCC2 (centres unmarked) [Example 72],≥ 80
24,"O=C(CNC(=O)c1sc(C2=NOC(c3cc(Cl)c(F)c(Cl)c3)(C(F)(F)F)C2)c2c1CCC2)NCC(F)(F)F (centres unmarked) [Example 57, 3-(5-(3,5-dichloro-4-fluorophenyl)-5-(trifluoromethyl)-4,5-dihydroisoxazol-3-yl)-N-(2-oxo-2-(2,2,2-trifluoroethylamino)ethyl)-5,6-dihydro-4H-cyclopenta[c] thiophene-1-carboxamide]",≥ 80
25,O=C(NC1CCN(CC(F)(F)F)C1=O)c1sc(C2=NOC(c3cc(Cl)c(F)c(Cl)c3)(C(F)(F)F)C2)c2c1CCCC2 (centres unmarked) [Example 82],≥ 80

# Same assay, conditions: tested at 300 micromolar, 30 minute immersion, mortality counted after 24 hours, read-out: % Efficacy (percent larval mortality)
row,Structure (SMILES),mortality at 300 µM [%]
1,"C#CCNC(=O)CNC(=O)c1sc(C2=NOC(c3sc(Cl)c(Cl)c3Cl)(C(F)(F)F)C2)c2c1CCCC2 (centres unmarked) [Example 74, N-(2-oxo-2-(prop-2-ynylamino)ethyl)-3-(5-(3,4,5-trichloro-thiophen-2-yl)-5-(trifluoromethyl)-4,5-dihydroisoxazol-3-yl)-4,5,6,7-tetrahydro-benzo[c]thiophene-1-carboxamide]",≥ 80
